Laboratory results: ChEMBL document CHEMBL1149643, “Synthesis of novel bicyclo[4.1.0]heptane and bicyclo[3.1.0]hexane derivatives as melanin-concentrating hormone receptor R1 antagonists” (Bioorg Med Chem Lett, 2007)

Tests used:
[1] = molecular target: hERG (KCNH2) (Homo sapiens, UniProt Q12809); experiment: Inhibition of hERG at 5 ug/ml by rubidium efflux assay; type: toxicity
[2] = molecular target: Melanin-concentrating hormone receptor 1 (Homo sapiens, UniProt Q99705); experiment: Antagonist activity at MCHR1; type: functional
Chain of Melanin-concentrating hormone receptor 1 (Q99705 whole entry): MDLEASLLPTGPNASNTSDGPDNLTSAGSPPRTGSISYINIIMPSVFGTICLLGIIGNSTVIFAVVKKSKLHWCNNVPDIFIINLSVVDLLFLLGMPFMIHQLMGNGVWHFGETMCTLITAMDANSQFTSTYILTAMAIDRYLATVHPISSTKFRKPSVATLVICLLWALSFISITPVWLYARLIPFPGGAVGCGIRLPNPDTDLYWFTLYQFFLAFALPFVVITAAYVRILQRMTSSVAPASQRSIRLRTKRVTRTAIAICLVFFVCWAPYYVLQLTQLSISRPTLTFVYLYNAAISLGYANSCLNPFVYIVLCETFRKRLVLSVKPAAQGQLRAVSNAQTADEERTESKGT

[3] = test system: Mus musculus; experiment: Ex vivo receptor occupancy at MCHR1 in mouse at 30 mg/kg, po; type: functional

Chain of hERG (KCNH2) (Q12809 whole entry): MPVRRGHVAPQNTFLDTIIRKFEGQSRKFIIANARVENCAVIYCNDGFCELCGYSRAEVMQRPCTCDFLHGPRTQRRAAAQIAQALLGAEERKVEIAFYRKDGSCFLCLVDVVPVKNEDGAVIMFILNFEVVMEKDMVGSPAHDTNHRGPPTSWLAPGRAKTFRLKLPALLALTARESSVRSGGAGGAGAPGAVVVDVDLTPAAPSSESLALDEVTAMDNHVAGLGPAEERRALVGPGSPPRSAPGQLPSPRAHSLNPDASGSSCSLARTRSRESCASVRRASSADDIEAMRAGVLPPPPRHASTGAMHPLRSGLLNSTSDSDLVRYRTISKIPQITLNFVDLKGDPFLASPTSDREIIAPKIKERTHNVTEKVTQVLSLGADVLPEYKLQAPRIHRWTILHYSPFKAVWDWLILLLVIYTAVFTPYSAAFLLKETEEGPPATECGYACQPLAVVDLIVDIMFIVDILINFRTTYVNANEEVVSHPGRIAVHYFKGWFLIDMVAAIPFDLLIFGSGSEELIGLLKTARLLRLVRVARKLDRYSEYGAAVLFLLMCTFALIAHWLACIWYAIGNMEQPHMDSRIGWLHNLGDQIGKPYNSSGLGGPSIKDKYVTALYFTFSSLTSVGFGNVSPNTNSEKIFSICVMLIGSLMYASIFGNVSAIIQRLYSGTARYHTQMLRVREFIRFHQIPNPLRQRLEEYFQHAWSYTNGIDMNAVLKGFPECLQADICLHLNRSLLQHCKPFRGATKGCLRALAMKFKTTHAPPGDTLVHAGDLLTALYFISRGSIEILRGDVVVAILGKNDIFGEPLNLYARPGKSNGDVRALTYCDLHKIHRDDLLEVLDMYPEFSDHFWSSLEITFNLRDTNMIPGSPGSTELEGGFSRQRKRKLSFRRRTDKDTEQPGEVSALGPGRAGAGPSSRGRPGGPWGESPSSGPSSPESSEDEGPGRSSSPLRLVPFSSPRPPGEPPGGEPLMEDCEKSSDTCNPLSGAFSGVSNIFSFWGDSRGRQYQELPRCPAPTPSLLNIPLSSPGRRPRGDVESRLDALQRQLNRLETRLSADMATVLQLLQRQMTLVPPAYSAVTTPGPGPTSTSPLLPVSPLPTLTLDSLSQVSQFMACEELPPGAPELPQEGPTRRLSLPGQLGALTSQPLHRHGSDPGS

| Compound | Ki [2] [nM] | inhibition at 5 ug/ml [1] [%] | inhibition in vivo at 30 mg/kg [3] [%] |
| --- | --- | --- | --- |
| N#Cc1cccc([C@]23CC[C@@H](N(CCN4CC[C@@H](O)C4)C(=O)Nc4ccc(F)c(Cl)c4)CC2C3)c1 (some centres not stated) |  | 80 |  |
| NCc1ncc([C@]23CC[C@@H](N(CCN4CCCC4)C(=O)Nc4ccc(F)c(C(F)(F)F)c4)C2C3)s1 (some centres not stated) | 107 | 16 |  |
| NCc1ncc([C@]23CC[C@@H](N(CCCN4CC[C@H](O)C4)C(=O)Nc4ccc(F)c(C(F)(F)F)c4)C2C3)s1 (some centres not stated) | 45 | -4 |  |
| NCc1ncc([C@]23CC[C@@H](N(CCCN4CC[C@@H](O)C4)C(=O)Nc4ccc(F)c(C(F)(F)F)c4)C2C3)s1 (some centres not stated) | 17 | -4 |  |
| C[C@@H]1CN(CCCN(C(=O)Nc2cc(Cl)nc(Cl)c2)[C@@H]2CC[C@]3(c4cnc(CN)s4)CC23)[C@@H](C)CN1 (some centres not stated) | 13.1 | 3 |  |
| NCc1ncc([C@]23CC[C@@H](N(CCCN4CC5CC4CN5)C(=O)Nc4ccc(F)c(C(F)(F)F)c4)C2C3)s1 (some centres not stated) | 73 | 14 |  |
| C[C@@H]1CN(CCCN(C(=O)Nc2cc(Cl)nc(Cl)c2)[C@H]2CC[C@]3(c4cnc(CN)s4)C[C@H]23)[C@@H](C)CN1 | 6.1 | -12 | 16 |
| NCc1ncc(C2=CCC(N(CCN3CCCC3)C(=O)Nc3ccc(F)c(Cl)c3)CC2)s1 (configuration not stated) |  | 10 | 88 |
| C[C@@H]1CN(CCCN(C(=O)Nc2cc(Cl)nc(Cl)c2)[C@H]2CC[C@@]3(c4cnc(CN)s4)C[C@@H]23)[C@@H](C)CN1 | 117 | -13 | 20 |
| C[C@@H]1CN(CCCN(C(=O)Nc2ccc(F)c(C(F)(F)F)c2)[C@@H]2CC[C@]3(c4cnc(CN)s4)CC23)[C@@H](C)CN1 (some centres not stated) | 19 | -8 |  |
| NCc1cnc([C@]23CC[C@@H](N(CCN4CCCC4)C(=O)Nc4ccc(F)c(C(F)(F)F)c4)CC2C3)s1 (some centres not stated) | 431 | 19 |  |

More lines, in order of falling Ki [2], values ahead:

| Ki [2] [nM] | Compound | inhibition at 5 ug/ml [1] [%] | inhibition in vivo at 30 mg/kg [3] [%] |
| --- | --- | --- | --- |
| 171 | C[C@@H]1CN[C@@H](C)CN1CCCN(C(=O)Nc1cc(Cl)nc(Cl)c1)[C@H]1CC[C@@]2(c3cnc(CN)s3)C[C@@H]12 | 17 | 26 |
| 167 | NCc1ncc([C@@]23CC[C@H](N(CCCN4CC[C@@H](O)C4)C(=O)Nc4ccc(F)c(C(F)(F)F)c4)[C@@H]2C3)s1 | 6 |  |
| 99 | NCc1ncc([C@]23CC[C@@H](N(CCN4CC[C@H](O)C4)C(=O)Nc4ccc(F)c(C(F)(F)F)c4)C2C3)s1 (some centres not stated) | 8 |  |
| 22 | N#Cc1cccc([C@]23CC[C@@H](N(CCCN4CC[C@@H](O)C4)C(=O)Nc4ccc(F)c(Cl)c4)[C@H]2C3)c1 | 86 |  |
| 6.6 | NCc1ncc([C@]23CC[C@H](N(CCCN4CC[C@@H](O)C4)C(=O)Nc4ccc(F)c(C(F)(F)F)c4)[C@H]2C3)s1 | 8 |  |
| 4 | C[C@@H]1CN[C@@H](C)CN1CCCN(C(=O)Nc1cc(Cl)nc(Cl)c1)[C@H]1CC[C@]2(c3cnc(CN)s3)C[C@H]12 | 22 | 39 |
